Data taken from ChEMBL document CHEMBL1126523, “Synthesis and antiflammatory activity of some 3-heterocycle-1,2-benzisothiazoles” (1993).

Tests used:
Type in all cases: functional
[1] = system: Rattus norvegicus; experiment: Tested for % inhibition in carrageenan-induced rat paw adema after intraperitoneal administration of 100 mg/kg dose at 3.5 hours; settings: ip
[2] = system: Rattus norvegicus; experiment: Tested for % inhibition in carrageenan-induced rat paw adema after peroral administration of 100 mg/kg dose at 3.5 hours; settings: route oral
[3] = system: Rattus norvegicus; experiment: Tested for % inhibition in carrageenan-induced rat paw adema after intraperitoneal administration of 100 mg/kg dose at 2 hours; settings: ip
[4] = system: Rattus norvegicus; experiment: Tested for % inhibition in carrageenan-induced rat paw adema after peroral administration of 100 mg/kg dose at 2 hours; settings: route oral

Compound | inhibition in vivo at 100 mg/kg [1] [%] | inhibition in vivo at 100 mg/kg [2] [%] | inhibition in vivo at 100 mg/kg [3] [%] | inhibition in vivo at 100 mg/kg [4] [%]
c1ccc(-c2nnc(-c3nsc4ccccc34)o2)cc1 | 48 | 32 | 60 | 60
CCn1c(S)nnc1-c1nsc2ccccc12 | 50 | 32 | 64 | 57
Cc1nnc(-c2nsc3ccccc23)o1 | 42 | 21 | 69 | 43
CCNc1nnc(-c2nsc3ccccc23)o1 | 42 | 29 | 65 | 53
Clc1ccc(Nc2nnc(-c3nsc4ccccc34)o2)cc1 | 40 | 10 | 48 | 14
COc1ccc(-c2nnc(-c3nsc4ccccc34)o2)cc1 | 33 | 29 | 45 | 21
c1ccc(Nc2nnc(-c3nsc4ccccc34)o2)cc1 | 48 | 27 | 67 | 56
CNc1nnc(-c2nsc3ccccc23)o1 | 60 | 10 | 67 | 10
c1ccc(-c2nnc(-c3nsc4ccccc34)s2)cc1 | 10 | 22 | 21 | 10
Clc1ccc(-c2nnc(-c3nsc4ccccc34)o2)cc1 | 33 | 24 | 50 | 13
COc1ccc(Nc2nnc(-c3nsc4ccccc34)o2)cc1 | 50 | 33 | 59 | 28
c1ccc(Nc2nnc(-c3nsc4ccccc34)s2)cc1 | 48 | 10 | 62 | 8
CCNc1nnc(-c2nsc3ccccc23)s1 | 50 | 25 | 59 | 34
Sc1nnc(-c2nsc3ccccc23)n1-c1ccccc1 | 60 | 10 | 81 | 10
CCc1nnc(-c2nsc3ccccc23)s1 | 10 | 12 | 10 | 10
CCc1nnc(-c2nsc3ccccc23)o1 | 10 | 18 | 10 | 10
CC(C)Cc1ccc(C(C)C(=O)O)cc1 (stereo not drawn) [IBUPROFEN] | 74 | 65 | 70 | 62
